The supplement of paper PMC10307832

These cell lines were tested with C[C@@]1(C(=O)Nc2ccc(F)nc2)CCCN1c1nc(Nc2cc(C3CC3)n[nH]2)c2cccn2n1 + Nc1ncn([C@H]2C[C@H](O)[C@@H](CO)O2)c(=O)n1 [Decitabine] (partner 2 µM) (assay: relative viability (nuclei count vs DMSO), 5 days (fraction); higher = more cells survive). Details: first compound 0.4 µM.
Method in brief: (§1)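 Nuclei were stained with Hoechst during a one-step fixation (final 0.05% Triton X-100, 1% formaldehyde, 1 ug/ml Hoechst) carried out 5 days after dosing, then counted on 4× images. The cells, lung cancer lines in 1536-well plates, had been dosed by pin tool the day after seeding with one drug alone or a fixed anchor-drug dose plus five library-drug doses (not always all listed) in √10 steps. Relative viability is the nuclei count in treated wells divided by that in vehicle wells, and each value is the median of duplicate plates.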
In the case of LU99A, the relative viability is reported as 0.527. In the case of BEN, the relative viability is reported as 0.737. For HARA, the relative viability was 0.418. For HCC-78, the relative viability was 0.587. For NCI-H322M, the relative viability was 0.494. In the case of LCLC-97TM1, the relative viability is reported as 0.111. In the case of A-427, the relative viability is reported as 0.489. In the case of NCI-H441, the relative viability is reported as 0.23. NCI-H1734 showed a relative viability of 0.405. NCI-H460 was tested, and the relative viability was 0.413. Cell Line NCI-H2347 has a relative viability of 0.487. Work on NCI-H1395 yielded a relative viability of 0.653. With 201T the relative viability was 0.671. In the case of NCI-H1915, the relative viability is reported as 0.251. Work on HCC-827 yielded a relative viability of 0.351. In the case of LXF-289, the relative viability is reported as 0.394. In the case of NCI-H23, the relative viability is reported as 0.258. Cell Line NCI-H647 has a relative viability of 0.368. In the case of NCI-H1651, the relative viability is reported as 0.565. In the case of EPLC-272H, the relative viability is reported as 0.279. With NCI-H1792 the relative viability was 0.249. NCI-H1355 gave a relative viability of 0.337. NCI-H3122 gave a relative viability of 0.349. NCI-H1437 gave a relative viability of 0.521. NCI-H1755 gave a relative viability of 0.704. Cell Line HCC-15 has a relative viability of 0.43. For NCI-H1793, the relative viability was 0.429. PC-14 showed a relative viability of 0.177. With EKVX the relative viability was 0.357. Work on LC-2-ad yielded a relative viability of 0.66. NCI-H1944 gave a relative viability of 0.376. With NCI-H1975 the relative viability was 0.319. With RERF-LC-KJ the relative viability was 0.468.

Same assay, conditions: first compound 1.265 µM
Work on NCI-H2170 yielded a relative viability of 0.468. NCI-H2405 was tested, and the relative viability was 0.576. In the case of HOP-62, the relative viability is reported as 0.173. HCC-44 showed a relative viability of 0.84. With LU99A the relative viability was 0.738. In the case of BEN, the relative viability is reported as 0.562. Work on HARA yielded a relative viability of 0.513. Work on HCC-78 yielded a relative viability of 0.394. For NCI-H322M, the relative viability was 0.547. Cell Line LCLC-97TM1 has a relative viability of 0.271. A-427 gave a relative viability of 0.501. In the case of NCI-H441, the relative viability is reported as 0.223. NCI-H1734 showed a relative viability of 0.437. NCI-H460 was tested, and the relative viability was 0.346. Work on NCI-H2347 yielded a relative viability of 0.599. NCI-H1395 gave a relative viability of 0.68. 201T was tested, and the relative viability was 0.862. NCI-H1915 gave a relative viability of 0.258. For HCC-827, the relative viability was 0.305. Cell Line LXF-289 has a relative viability of 0.383. With NCI-H23 the relative viability was 0.271. NCI-H647 gave a relative viability of 0.421. NCI-H1651 showed a relative viability of 0.45. In the case of EPLC-272H, the relative viability is reported as 0.336. In the case of NCI-H1792, the relative viability is reported as 0.304. NCI-H1355 gave a relative viability of 0.352. NCI-H3122 was tested, and the relative viability was 0.386. Work on NCI-H1437 yielded a relative viability of 0.432. In the case of NCI-H1755, the relative viability is reported as 0.74. In the case of HCC-15, the relative viability is reported as 0.311. NCI-H1793 gave a relative viability of 0.429. For PC-14, the relative viability was 0.172. EKVX was tested, and the relative viability was 0.288. Work on LC-2-ad yielded a relative viability of 0.606. NCI-H1944 was tested, and the relative viability was 0.386. For NCI-H1975, the relative viability was 0.303. RERF-LC-KJ was tested, and the relative viability was 0.467.

What follows are cell lines tested with C[C@@]1(C(=O)Nc2ccc(F)nc2)CCCN1c1nc(Nc2cc(C3CC3)n[nH]2)c2cccn2n1 + NC(=O)Nc1cc(-c2cccc(F)c2)sc1C(=O)N[C@H]1CCCNC1 [AZD7762] (partner 0.2 µM) in the same assay as above. Details: first compound 0.04 µM.
Method in brief: as §1
NCI-H2170 showed a relative viability of 0.836. NCI-H2405 showed a relative viability of 0.619. HOP-62 was tested, and the relative viability was 0.812. With HCC-44 the relative viability was 1.02. With LU99A the relative viability was 0.294. With BEN the relative viability was 0.809. HARA showed a relative viability of 0.42. With HCC-78 the relative viability was 0.593. With NCI-H322M the relative viability was 0.45.
